{"source": "patent US8252946B2", "about": "“Crystalline forms of tigecycline hydrochloride” (Sandoz AG, priority 2007, dated 2012)", "type_in_all_cases": "physicochemical", "key": {"[1]": {"test": "Thermal stability: 4-Epi-Tigecycline and total impurities at ambient conditions and after 7 days at 80° C.", "excerpt": "Tigecycline must be available in a physical stable form as well, in order to avoid degradation and as a consequence the building of undesired byproducts."}, "[2]": {"test": "Storage stability of lyophilized amorphous Tigecycline hydrochloride at room temperature", "conditions": "stored for about 9 months at room temperature", "procedure": "Moreover crystalline forms A and B of Tigecycline hydrochloride of the present invention show better physical stability than amorphous Tigecycline hydrochloride. For example amorphous Tigecycline hydrochloride was prepared by lyophilization and stored for about 9 months at room temperature. […] Therefore amorphous Tigecycline hydrochloride is not suitable as an intermediate for the formulation of an anti-infective medicament, due to the low stability."}, "[3]": {"test": "Water solubility testing (saturated solution in distilled water, UV-vis at 347 nm)", "procedure": "The finished dosage form contains lyophilized amorphous Tigecycline respectively Tigecycline hydrochloride. Before lyophilizing, Tigecycline respectively Tigecycline hydrochloride is dissolved in water, thus water solubility is an important factor to consider.\nA UV-vis Lambda 35 spectrophotometer (Perkin-Elmer) was used (λ=347 nm, 1.0 cm quartz cells). Perkin Elmer® UV Win Lab-5.1 software was used.\nA saturated solution of Tigecycline respectively Tigecycline hydrochloride in distilled water was prepared and the suspension was stirred at room temperature for 30 minutes with a stirring speed of 1000 U/min. The suspension was filtrated through a 0.45 μm filter. Finally the resulting solution was diluted 10000-fold and measured against water at a wavelength of 347 nm."}, "[4]": {"test": "Conversion into other crystalline or amorphous forms on storing at elevated temperature", "conditions": "after storing for 7 days at 80° C."}, "[5]": {"test": "Water content on storage at defined relative humidity at 25° C.", "procedure": "The water content of crystalline form A of Tigecycline hydrochloride may vary from about 0-6.0% e.g. the water content is 0% when stored at 1.7% relative humidity at 25° C., 2.7% when stored at 42.7% relative humidity at 25° C. and 5.8% when stored at 80% relative humidity at 25° C."}, "[6]": {"conditions": "after storing for 7 days at 80° C."}}}
{"smiles": "CN(C)c1cc(NC(=O)CNC(C)(C)C)c(O)c2c1C[C@H]1C[C@H]3[C@H](N(C)C)C(O)=C(C(N)=O)C(=O)[C@@]3(O)C(O)=C1C2=O", "note": "[WO 2007/127292 II, (4S,4aS,5aR,12aS)-4,7-Bis(dimethylamino)-9-[[[(1,1-dimethylethyl)amino]acetyl]amino]-1,4,4a,5,5a,6,11,12a-octahydro-3,10,12,12a-tetrahydroxy-1,11-dioxo-2-naphthacenecarboxamide]", "values": [{"measurement": "4-EPI-TIGECYCLINE AT AMBIENT CONDITIONS", "setting": "[1]; listed as WO2007/127792 II", "value": 0.17}, {"measurement": "TOTAL IMPURITIES AT AMBIENT CONDITIONS", "setting": "[1]; listed as WO2007/127792 II", "value": 0.24}]}
{"smiles": "CN(C)c1cc(NC(=O)CNC(C)(C)C)c(O)c2c1C[C@H]1C[C@H]3[C@H](N(C)C)C(O)=C(C(N)=O)C(=O)[C@@]3(O)C(O)=C1C2=O.Cl", "note": "[amorphous Tigecycline hydrochloride, Tigecycline hydrochloride]", "values": [{"measurement": "4-Epi-Tigecycline content", "setting": "[2]", "value": 19.56, "unit": "%"}, {"measurement": "total impurities", "setting": "[2]", "value": 21.55, "unit": "%"}]}
{"smiles": "CN(C)c1cc(NC(=O)CNC(C)(C)C)c(O)c2c1C[C@H]1C[C@H]3[C@H](N(C)C)C(O)=C(C(N)=O)C(=O)[C@@]3(O)C(O)=C1C2=O", "note": "[WO 2007/127292 I, (4S,4aS,5aR,12aS)-4,7-Bis(dimethylamino)-9-[[[(1,1-dimethylethyl)amino]acetyl]amino]-1,4,4a,5,5a,6,11,12a-octahydro-3,10,12,12a-tetrahydroxy-1,11-dioxo-2-naphthacenecarboxamide]", "values": [{"measurement": "4-EPI-TIGECYCLINE AT AMBIENT CONDITIONS", "setting": "[1]; listed as WO2007/127792 I", "value": 0.34}, {"measurement": "TOTAL IMPURITIES AT AMBIENT CONDITIONS", "setting": "[1]; listed as WO2007/127792 I", "value": 0.59}]}
{"smiles": "CN(C)c1cc(NC(=O)CNC(C)(C)C)c(O)c2c1C[C@H]1C[C@H]3[C@H](N(C)C)C(O)=C(C(N)=O)C(=O)[C@@]3(O)C(O)=C1C2=O", "note": "[WO 2006/128150 V, (4S,4aS,5aR,12aS)-4,7-Bis(dimethylamino)-9-[[[(1,1-dimethylethyl)amino]acetyl]amino]-1,4,4a,5,5a,6,11,12a-octahydro-3,10,12,12a-tetrahydroxy-1,11-dioxo-2-naphthacenecarboxamide]", "values": [{"measurement": "4-EPI-TIGECYCLINE AT AMBIENT CONDITIONS", "setting": "[1]", "value": "<0.05"}, {"measurement": "TOTAL IMPURITIES AT AMBIENT CONDITIONS", "setting": "[1]", "value": 0.22}]}
{"smiles": "CN(C)c1cc(NC(=O)CNC(C)(C)C)c(O)c2c1C[C@H]1C[C@H]3[C@H](N(C)C)C(O)=C(C(N)=O)C(=O)[C@@]3(O)C(O)=C1C2=O", "note": "[WO 2006/128150 II, (4S,4aS,5aR,12aS)-4,7-Bis(dimethylamino)-9-[[[(1,1-dimethylethyl)amino]acetyl]amino]-1,4,4a,5,5a,6,11,12a-octahydro-3,10,12,12a-tetrahydroxy-1,11-dioxo-2-naphthacenecarboxamide]", "values": [{"measurement": "change in total impurities (in words)", "setting": "[1]; [6]", "value": "tremendous increase"}, {"measurement": "4-EPI-TIGECYCLINE AT AMBIENT CONDITIONS", "setting": "[1]", "value": 1.04}, {"measurement": "TOTAL IMPURITIES AT AMBIENT CONDITIONS", "setting": "[1]", "value": 1.60}]}
{"smiles": "CN(C)c1cc(NC(=O)CNC(C)(C)C)c(O)c2c1C[C@H]1C[C@H]3[C@H](N(C)C)C(O)=C(C(N)=O)C(=O)[C@@]3(O)C(O)=C1C2=O.Cl", "note": "[Form A, Tigecycline hydrochloride]", "values": [{"measurement": "water solubility compared with the other crystalline forms (in words)", "setting": "[3]", "value": "highest water solubility"}, {"measurement": "solubility thermodynamic at 30 min", "setting": "[3]; water, saturated solution in distilled water, stirred 30 minutes at room temperature, filtered 0.45 μm, read-out: Water solubility, CONCENTRATION", "value": 503, "unit": "mg/mL"}, {"measurement": "change in 4-Epi-Tigecycline content (in words)", "setting": "[1]; [6]", "value": "practically did not change"}, {"measurement": "change in total impurities (in words)", "setting": "[1]; [6]", "value": "low"}, {"measurement": "4-EPI-TIGECYCLINE AT AMBIENT CONDITIONS", "setting": "[1]; listed as A, hydrochloride", "value": 0.84}, {"measurement": "TOTAL IMPURITIES AT AMBIENT CONDITIONS", "setting": "[1]; listed as A, hydrochloride", "value": 1.07}, {"measurement": "conversion into other crystalline or amorphous forms", "setting": "[4]", "value": "did not convert"}, {"measurement": "water content, span of variation", "setting": "[5]; may vary, depending on relative humidity", "value": "0-6.0%"}, {"measurement": "water content", "setting": "[5]; stored at 1.7% relative humidity at 25° C.", "value": 0, "unit": "%"}, {"measurement": "water content", "setting": "[5]; stored at 42.7% relative humidity at 25° C.", "value": 2.7, "unit": "%"}, {"measurement": "water content", "setting": "[5]; stored at 80% relative humidity at 25° C.", "value": 5.8, "unit": "%"}]}
{"smiles": "CN(C)c1cc(NC(=O)CNC(C)(C)C)c(O)c2c1C[C@H]1C[C@H]3[C@H](N(C)C)C(O)=C(C(N)=O)C(=O)[C@@]3(O)C(O)=C1C2=O", "note": "[WO 2006/128150 III, (4S,4aS,5aR,12aS)-4,7-Bis(dimethylamino)-9-[[[(1,1-dimethylethyl)amino]acetyl]amino]-1,4,4a,5,5a,6,11,12a-octahydro-3,10,12,12a-tetrahydroxy-1,11-dioxo-2-naphthacenecarboxamide]", "values": [{"measurement": "Water solubility, CONCENTRATION", "setting": "[3]; saturated solution in distilled water, stirred 30 minutes at room temperature, filtered 0.45 μm", "value": 174, "unit": "mg/mL"}, {"measurement": "4-EPI-TIGECYCLINE 7 DAYS AT 80° C.", "setting": "[1]; after storing 7 days at 80° C.", "value": 2.18}, {"measurement": "TOTAL IMPURITIES 7 DAYS AT 80° C.", "setting": "[1]; after storing 7 days at 80° C.", "value": 4.46, "unit": "%"}, {"measurement": "4-EPI-TIGECYCLINE AT AMBIENT CONDITIONS", "setting": "[1]", "value": 0.16}, {"measurement": "TOTAL IMPURITIES AT AMBIENT CONDITIONS", "setting": "[1]", "value": 0.16, "unit": "%"}]}
{"smiles": "CN(C)c1cc(NC(=O)CNC(C)(C)C)c(O)c2c1C[C@H]1C[C@H]3[C@H](N(C)C)C(O)=C(C(N)=O)C(=O)[C@@]3(O)C(O)=C1C2=O.Cl", "note": "[Form B, Tigecycline hydrochloride]", "values": [{"measurement": "Water solubility, CONCENTRATION", "setting": "[3]; saturated solution in distilled water, stirred 30 minutes at room temperature, filtered 0.45 μm, hydrochloride", "value": 323, "unit": "mg/mL"}, {"measurement": "4-EPI-TIGECYCLINE AT AMBIENT CONDITIONS", "setting": "[1]; listed as B, hydrochloride", "value": 0.93}, {"measurement": "TOTAL IMPURITIES AT AMBIENT CONDITIONS", "setting": "[1]; listed as B, hydrochloride", "value": 1.91}]}
{"smiles": "CN(C)c1cc(NC(=O)CNC(C)(C)C)c(O)c2c1C[C@H]1C[C@H]3[C@H](N(C)C)C(O)=C(C(N)=O)C(=O)[C@@]3(O)C(O)=C1C2=O", "note": "[WO 2006/128150 I, (4S,4aS,5aR,12aS)-4,7-Bis(dimethylamino)-9-[[[(1,1-dimethylethyl)amino]acetyl]amino]-1,4,4a,5,5a,6,11,12a-octahydro-3,10,12,12a-tetrahydroxy-1,11-dioxo-2-naphthacenecarboxamide]", "values": [{"measurement": "change in total impurities (in words)", "setting": "[1]; [6]", "value": "tremendous increase"}, {"measurement": "4-EPI-TIGECYCLINE AT AMBIENT CONDITIONS", "setting": "[1]", "value": 0.36}, {"measurement": "TOTAL IMPURITIES AT AMBIENT CONDITIONS", "setting": "[1]", "value": 0.75}]}
{"smiles": "CN(C)c1cc(NC(=O)CNC(C)(C)C)c(O)c2c1C[C@H]1C[C@H]3[C@H](N(C)C)C(O)=C(C(N)=O)C(=O)[C@@]3(O)C(O)=C1C2=O", "note": "[WO 2006/128150 IV, (4S,4aS,5aR,12aS)-4,7-Bis(dimethylamino)-9-[[[(1,1-dimethylethyl)amino]acetyl]amino]-1,4,4a,5,5a,6,11,12a-octahydro-3,10,12,12a-tetrahydroxy-1,11-dioxo-2-naphthacenecarboxamide]", "values": [{"measurement": "4-EPI-TIGECYCLINE AT AMBIENT CONDITIONS", "setting": "[1]", "value": 0.23}, {"measurement": "TOTAL IMPURITIES AT AMBIENT CONDITIONS", "setting": "[1]", "value": 0.40}]}
